From patent publication US4118482A (priority 1977, dated 1978)
Numbered stars: 1 amine (or outer) side, 2 acyl side, 3 side chain; on linkers, the order of the positions; unused ones are H or OH. Bridge positions count the residues as written; N and C are the ends. Square brackets hold non-standard residues; d marks the D form. Peptide text beside a SMILES is read from it. I, II: the chains in the order shown. Actinocin(9to1) = Cc1c2oc3c(C)ccc(C(=O)[*:1])c3nc-2c(C(=O)[*:2])c(N)c1=O; NMeV = CN[CH](C(=O)O)C(C)C; Aze = O=C(O)[CH]1CCN1; Sar = CNCC(=O)O

How the values were obtained:
[1] = Storage stability in aqueous solution; assay type: physicochemical; settings: 0°-25° C, pH range of 5-8, maintained in the dark
Method: The major products of interest were determined to be Azetomicin I and Azetomycin II. They were stable after storage at 0°-25° C in aqueous solution in the pH range of 5-8 for at least 5 days when maintained in the dark.

ADVANCED P388 LEUKEMIA = experiment: Advanced P388 leukemia in mice, treatment Q4D x 3 at days 5, 9, 13; assay type: in vivo; settings: 0.6 Mg/Kg/Inj., Q4D x 3 days 5, 9, 13, advanced P388; for SURVIAL TIME MEDIAN: controls 10 days
Text: (§1) The National Cancer Institute conducted a screening test on samples of both Azetomicin I (3' prolyl, 3' azet) and Azetomicin II (3', 3' azet) as well as on Dactinomycin (3', 3' prolyl) that is also known as Actinomycin D or C1. The Azetomicin and Dactinomycin molecules are identical, with the exception of the 3' amino acid position on the peptides, wherein the 3' positions, in the case of Dactinomycin are both prolyl; in the case of the Azetomicin I are prolyl and azetidine-2-carboxyl; and in the cae of Azetomicin II are both azetidine-2-carboxyl.
ADVANCED P388 LEUKEMIA : Q4D × 3 AT DAYS 5, 9, 13 TREATMENT

Rous sarcoma virus = experiment: Development of visible tumors in chicks infected with Rous sarcoma virus, single injection; assay type: in vivo; settings: injected once; compared with untreated or saline injected controls
Method: In another test, both Azetomicin I and Azetomicin II, were injected once into chicks infected with Rous sarcoma virus. The development of visible tumors was decreased by over 80% as compared with untreated or saline injected controls.

P388 leukemia = P388 leukemia in mice, treatment QD at days 1-9 (National Cancer Institute screen); assay type: in vivo; settings: for 5 ILS* (increased life span) / 60 DAY "CURES" / SURVIAL TIME MEDIAN: QD days 1-9, P388 mice; for SURVIAL TIME MEDIAN: controls 10 days; for activity compared with Dactinomycin (summary of Table I): P388 leukemia mice
Text: as §1
P 388 LEUKEMIA : QD AT DAYS 1-9 TREATMENT

[2] = Toxicity per mg compared with Actinomicin D
[3] = tested on: Bacillus subtilis, Staphylococcus aureus and Staphylococcus albus; experiment: Inhibition of bacterial growth (cross section of gram-positive and gram-negative bacteria); assay type: cell-based
[4] = tested on: advanced Ridgeway osteogenic sarcoma; experiment: Drug-induced regression of advanced Ridgeway osteogenic sarcoma in mice; assay type: in vivo
Method: A sample of Azetomicin I was tested on mice infected with advanced Ridgeway osteogenic sarcoma. […] Data supplied by Dr. F. Schabel and his coworkers at Southern Research Institute has been collected in Table II below, with the results from Azetomicin I testing also noted: […]

[5] = schedule day 12, Azetomicin I testing

Question: Which “time stable after storage in aqueous solution” value [1] does the source give for `Cc1c2oc3c(C)ccc(C(=O)NC4C(=O)NC(C(C)C)C(=O)N5CCC5C(=O)N(C)CC(=O)N(C)C(C(C)C)C(=O)OC4C)c3nc-2c(C(=O)NC2C(=O)NC(C(C)C)C(=O)N3CCC3C(=O)N(C)CC(=O)N(C)C(C(C)C)C(=O)OC2C)c(N)c1=O` (centres unmarked) [AZETOMICIN-II, Azetomicin II] (I: TV[Aze][Sar][NMeV] / II: TV[Aze][Sar][NMeV]; ester I:1-I:C, II:1-II:C; linker I:N-II:N via Actinocin(9to1); configuration not given here) here?
Answer: Its value is “at least 5 days”.

Question: And the “5 ILS* (increased life span)” value (ADVANCED P388 LEUKEMIA)?
Answer: Its value is 150%.

Question: And the “60 DAY "CURES"” value (ADVANCED P388 LEUKEMIA)?
Answer: Its value is 0.

Question: What about the “SURVIAL TIME MEDIAN” value (ADVANCED P388 LEUKEMIA) of the same molecule?
Answer: The value was 25 days.

Question: What about the “decrease of development of visible tumors” value (Rous sarcoma virus) of the same molecule?
Answer: The value was “over 80%”.

Question: And the “5 ILS* (increased life span)” value (P388 leukemia; 0.05 Mg/Kg/Inj.)?
Answer: Its value is 125%.

Question: What about the “60 DAY "CURES"” value (P388 leukemia; 0.05 Mg/Kg/Inj.) of the same molecule?
Answer: The value was 0%.

Question: And the “SURVIAL TIME MEDIAN” value (P388 leukemia; 0.05 Mg/Kg/Inj.)?
Answer: The value was 22.5 days.

Question: What about the “5 ILS* (increased life span)” value (P388 leukemia; 0.1 Mg/Kg/Inj.) of the same molecule?
Answer: Its value is 130%.

Question: And the “60 DAY "CURES"” value (P388 leukemia; 0.1 Mg/Kg/Inj.)?
Answer: The value was 12%.

Question: What about the “SURVIAL TIME MEDIAN” value (P388 leukemia; 0.1 Mg/Kg/Inj.) of the same molecule?
Answer: The value was 23 days.

Question: What about the “activity compared with Dactinomycin (summary of Table I)” value (P388 leukemia) of the same molecule?
Answer: Its value is “roughly comparable in activity to Dactinomycin”.

Question: What about the “toxicity/mg. compared with Actinomicin D” value [2] of the same molecule?
Answer: Its value is “substantially less toxic/mg”.

Question: And the “activity against bacterial growth relative to Actinomicin D” value [3]?
Answer: Its value is 50%.

Question: With Azetomicin I [AZETOMICIN-I] as the molecule, how does the “animals with complete regression” value ([4]; of 10 animals treated, 12th day only injection schedule) read?
Answer: The value was 10 animals.

Question: And the “"CURES" (Number/Total)” value [4, 5]?
Answer: The value was 10/10.

Question: What about the “REGRESSION 50+%-PARTIAL (Number/Total)” value [4, 5] of the same molecule?
Answer: Its value is 10/10.

Question: And the “REGRESSION COMPLETE (Number/Total)” value [4, 5]?
Answer: Its value is 10/10.

Question: And the “time stable after storage in aqueous solution” value [1]?
Answer: The value was “at least 5 days”.

Question: What about the “5 ILS* (increased life span)” value (ADVANCED P388 LEUKEMIA) of the same molecule?
Answer: The value was 270%.

Question: What about the “60 DAY "CURES"” value (ADVANCED P388 LEUKEMIA) of the same molecule?
Answer: Its value is 0.

Question: And the “SURVIAL TIME MEDIAN” value (ADVANCED P388 LEUKEMIA)?
Answer: Its value is 37 days.

Question: And the “decrease of development of visible tumors” value (Rous sarcoma virus)?
Answer: Its value is “over 80%”.

Question: What about the “5 ILS* (increased life span)” value (P388 leukemia; 0.05 Mg/Kg/Inj.) of the same molecule?
Answer: The value was 150%.

Question: What about the “60 DAY "CURES"” value (P388 leukemia; 0.05 Mg/Kg/Inj.) of the same molecule?
Answer: The value was 0%.

Question: What about the “SURVIAL TIME MEDIAN” value (P388 leukemia; 0.05 Mg/Kg/Inj.) of the same molecule?
Answer: Its value is 25 days.

Question: And the “5 ILS* (increased life span)” value (P388 leukemia; 0.1 Mg/Kg/Inj.)?
Answer: The value was 155%.

Question: And the “60 DAY "CURES"” value (P388 leukemia; 0.1 Mg/Kg/Inj.)?
Answer: The value was 0%.

Question: And the “SURVIAL TIME MEDIAN” value (P388 leukemia; 0.1 Mg/Kg/Inj.)?
Answer: Its value is 25.5 days.

Question: And the “5 ILS* (increased life span)” value (P388 leukemia; 0.2 Mg/Kg/Inj.)?
Answer: Its value is no less than 500%.

Question: And the “60 DAY "CURES"” value (P388 leukemia; 0.2 Mg/Kg/Inj.)?
Answer: The value was 60%.

Question: And the “SURVIAL TIME MEDIAN” value (P388 leukemia; 0.2 Mg/Kg/Inj.)?
Answer: The value was no less than 60 days.

Question: And the “activity compared with Dactinomycin (summary of Table I)” value (P388 leukemia)?
Answer: Its value is “clearly greater activity than both”.

Question: What about the “toxicity/mg. compared with Actinomicin D” value [2] of the same molecule?
Answer: The value was “substantially less toxic/mg”.

Question: What about the “activity against bacterial growth relative to Actinomicin D” value [3] of the same molecule?
Answer: Its value is 70%.
